According to patent publication US7049396B2, “Synthetic peptides that inhibit leukocyte superoxide anion production and/or attract leukocytes” (priority 1995, dated 2006):
Converted amounts (≈) assume the structure as drawn. Where a SMILES comes first, the peptide text is derived from it.

Legend:
E. coli, ATCC 25922 = test: Gel-overlay antibacterial assay; type: cell-based, Escherichia coli; details: 10 μg peptide per lane, AU-PAGE gel overlaid with E. coli, 18 hr
Salmonella choleraesuis = type: cell-based
Description: Plates were incubated at 37° C. for 18 hr. […] Viable bacteria were counted. Tests were repeated on three different days. […] The results were expressed as the mean ± standard deviation. […] S. choleraesuis, ATCC 6962 was used in this experiment. […] Slides were stained with LeukoStat solutions (Fisher, Pittsburgh, Pa.). […] At least 200 neutrophils were examined. […] Tests were repeated on three different days. Results were expressed as the mean±standard deviation.

porcine neutrophils = test: Neutrophil chemotaxis, modified Boyden chamber; type: cell-based; details: peptide at 0.05 μM, 30 min
Description: Influence of PR-39 on neutrophil chemotaxis. Chemotaxis of porcine neutrophils was measured by the procedure of Salak et al. (1993). Briefly, PR-14, PR15, PR-16, PR-26, or PR-39 (30 μl in Dulbecco's Modified Eagle's medium) were placed in the bottom chamber of a modified Boyden chamber (Neuro Probe, Cabin John, Md.) and porcine neutrophils (50 μl at 5×10^6 cells/ml) were placed in the top chamber. The chambers were incubated at 37° C. for 30 min. Cells that migrated through the porous membrane (pore size 5 μm) were stained using LeukoStat solution and enumerated. Five microscope fields were counted and the cells that migrated through the membrane were standardized to the medium control and referred to as the migration index.

p67^phox = test: Ligand-blot binding assay with biotinylated PR-39, p67phox; details: neutrophil cytosolic proteins probed with biotinylated PR-39
Description: Regulation of neutrophil O2^− production by PR-26 and PR-39. • (i) O2^− production assays. Whole-cell O2^− production by por-cine peripheral blood neutrophils was determined by the superoxide dismutase-inhibitable reduction of ferricytochrome c as previously described (Shi et al., 1994a). Cell-free O2^− production was measured as previously described (Leto et al., 1991) using 96-well plates and a Molecular Devices Thermomax microplate reader (Menlo Park, Calif.). Reactions (100 μl) contained 10^6 cell equivalents of human neutrophil cytosol and 5×10^5 cell equivalents of deoxycholate-solubilized membranes prepared from human peripheral blood neutrophils. Reaction mixtures contained 50 mM potassium phosphate (pH 7), 0.2 mM acetylated cytochrome c, 4 mM MgCl2, 1 mM EGTA, 10 μM FAD, 1 μM GTP-γS, and 200 μM NADPH. The reactions were initiated by addition of 40 μM arachidonic acid. Control reactions contained 5 μg of superoxide dismutase. Superoxide anion generation was calculated based on superoxide dismutase-inhibitable changes in cytochrome c absorbance observed at 551 nm. The reactions were followed for 20 min. after addition of arachidonic acid, with absorbance readings taken at 1-min. intervals. Maximum rates of superoxide generation were calculated from a linear least squares fit of 10 consecutive 1-min. data points. […]

recombinant p47^phox = recombinant p47^phox (Homo sapiens, UniProt P14598); test: Competitive ligand-blot binding assay
Description: Competitive ligand-blot assays were performed by incubating recombinant p47^phox (0.02 μM) with or without various concentrations (0.006, 0.06, and 0.6 μM) of PR-39 for 1 hr. at 37° C. and then with biotinylated PR-39 (0.06 μM) for an additional 1 hr. at 37° C. The solutions were dialyzed against ddH2O for 1 hr. at 4° C. before blotting to nitrocellulose (5 μl) and detection with a streptavidin alkaline-phosphatase detection system as described above.

[1] = molecular target: T1, interaction between GST-p47^phox and recombinant p22^phox (Homo sapiens, UniProt P14598); test: Solution binding assay GST-p47phox-SH3 / recombinant p22phox; details: concentrations close to IC50's of the cell-free oxidase assay
T1 construct: (GST)-p47^phox-SH3 (residues 151–284) fusion protein; made in house; host or cells: p22phox fragment: baculovirus-infected cells (used as lysate)
Description: Methods for production of the glutathione S-transferase (GST)-p47^phox-SH3 (residues 151–284) fusion protein have been previously described (Leto et al., 1994). For solution binding assays, lysates of recombinant p22^phox protein (residues 127–195) from baculovirus-infected cells (2.5×10^4 cell equivalents per assay) were mixed with peptides and incubated for 1 hr. at 20° C. with 100 μl of GST-p47^phox bound to glutathione-Sepharose beads (15% suspension). Bound proteins were washed three times in 15 volumes of ice-cold 100 mM KCl/3 mM NaCl/3.5 mM MgCl2/0.15 mM phenylmethanesulfonyl fluoride/10 mM Pipes (pH 7.5), eluted with 1% SDS, and analyzed by SDS-PAGE followed by immunoblotting with mouse anti-p22^phox antibody (mAb 449; A. Verhoeven, Central Laboratories of the Netherlands Red Cross). Controls included blotting of recombinant p22^phox lysate (5×10^3 cell equivalents) alone (p22) and bound complexes detected without competing PR peptides (−).

Chain of recombinant p47^phox (P14598 whole entry, species assumed): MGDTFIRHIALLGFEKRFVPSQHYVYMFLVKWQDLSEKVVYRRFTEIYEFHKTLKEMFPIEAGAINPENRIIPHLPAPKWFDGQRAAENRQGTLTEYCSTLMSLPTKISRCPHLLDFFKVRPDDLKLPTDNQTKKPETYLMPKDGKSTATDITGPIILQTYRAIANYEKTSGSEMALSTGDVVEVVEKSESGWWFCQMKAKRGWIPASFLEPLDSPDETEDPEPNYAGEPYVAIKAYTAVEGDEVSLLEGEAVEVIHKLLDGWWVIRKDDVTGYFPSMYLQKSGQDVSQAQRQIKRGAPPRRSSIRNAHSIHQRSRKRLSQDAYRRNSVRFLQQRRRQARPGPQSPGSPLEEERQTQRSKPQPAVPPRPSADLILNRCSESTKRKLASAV
T1 sequence (P14598 151-284): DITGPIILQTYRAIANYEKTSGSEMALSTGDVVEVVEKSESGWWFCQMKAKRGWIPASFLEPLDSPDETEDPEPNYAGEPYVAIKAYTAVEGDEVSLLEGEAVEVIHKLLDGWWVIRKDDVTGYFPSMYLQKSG
Description for Escherichia coli, K88: Briefly, 50 μl of twofold serial dilutions (128 to 0.25 μM) of synthetic peptides were dispensed into wells of 96-well tissue culture plates. Bacteria (E. coli, ATCC 25922; E. coli, K88; S. typhimurium, fresh isolate from a dog; Salmonella choleraesuis ATCC 6962; Streptococcus suis, fresh isolate from porcine spleen; and Staphylococcus aureus) from sheep-blood or brain-heart-infusion agar plates were standardized to 0.5 McFarland in demineralized water using a radiometer/sensititre (Chelsea Instrument Ltd., England). The water/bacteria suspension (100 μl) was immediately transferred to 10 ml of cation-adjusted Muller-Hinton broth and 50 μl of the bacterial suspension then were added to each well of the microtiter plate. Plates were incubated for 20 hr. at 37° C. and MICs were determined. Ten microliters of bacterial suspensions in Muller-Hinton broth also were diluted to determine the actual bacterial concentration using standard colony forming unit (CFU) counting. After determination of the MICs, 10 μl of each bacteria-peptide suspension were plated on sheep-blood or brain-heart-infusion agar plates and incubated for 24 hr. at 37° C. to determine the MBCs. MBC was considered that peptide concentration that inhibited 99.9% of the original CFUs (NCCLS, 1990). • (iv) PAE.

For `CC[C@H](C)[C@H](NC(=O)[C@H](CCCNC(=N)N)NC(=O)[C@@H]1CCCN1C(=O)[C@@H]1CCCN1C(=O)[C@H](CC(C)C)NC(=O)[C@H](CCCNC(=N)N)NC(=O)[C@@H]1CCCN1C(=O)[C@@H]1CCCN1C(=O)[C@H](Cc1ccccc1)NC(=O)[C@H](Cc1ccccc1)NC(=O)[C@@H]1CCCN1C(=O)[C@@H]1CCCN1C(=O)[C@@H]1CCCN1C(=O)[C@H](CCCNC(=N)N)NC(=O)[C@@H]1CCCN1C(=O)[C@H](CCCNC(=N)N)NC(=O)[C@@H]1CCCN1C(=O)[C@H](CC(C)C)NC(=O)[C@H](Cc1ccc(O)cc1)NC(=O)[C@@H]1CCCN1C(=O)[C@@H]1CCCN1C(=O)[C@H](CCCNC(=N)N)NC(=O)[C@@H]1CCCN1C(=O)[C@H](CCCNC(=N)N)NC(=O)[C@H](CCCNC(=N)N)NC(=O)[C@@H](N)CCCNC(=N)N)C(=O)N1CCC[C@H]1C(=O)N1CCC[C@H]1C(=O)NCC(=O)N[C@@H](Cc1ccccc1)C(=O)N1CCC[C@H]1C(=O)N1CCC[C@H]1C(=O)N[C@@H](CCCNC(=N)N)C(=O)N[C@@H](Cc1ccccc1)C(=O)N1CCC[C@H]1C(=O)N1CCC[C@H]1C(=O)N[C@@H](CCCNC(=N)N)C(=O)N[C@@H](Cc1ccccc1)C(=O)N1CCC[C@H]1C(=O)O` [PR-39] (H-RRRPRPPYLPRPRPPPFFPPRLPPRIPPGFPPRFPPRFP-OH; N-terminus and C-terminus assumed), the “antibacterial activity (clear zones on overlaid gel)” value (E. coli, ATCC 25922) was “antibacterial activity”, the MBC (Salmonella choleraesuis) was 4 µM (≈ 18.9 µg/mL) and the MIC (Salmonella choleraesuis) was 2 µM (≈ 9.44 µg/mL). The “neutrophil chemotaxis (migration index)” value (porcine neutrophils) was “chemotactic agents”, the “binding to p67phox” value (p67^phox) was “did not bind” and the “inhibition of binding of biotinylated PR-39 to recombinant p47phox” value (recombinant p47^phox; tenfold excess of unlabeled peptide) was “completely blocked”. For the same compound, the “inhibition of binding of biotinylated PR-39 to recombinant p47phox” value (recombinant p47^phox; unlabeled peptide 0.06 μM, equimolar to labeled) was 90%, the “blocking of interaction between GST-p47phox and recombinant p22phox” value [1] was “effectively blocked” and the MBC (Escherichia coli, K88) was 4 µM (≈ 18.9 µg/mL). For the same compound, the MIC (Escherichia coli, K88) was 2 µM (≈ 9.44 µg/mL).
